From patent publication US20090233999A1, “COMPOSITIONS AND THERAPEUTIC METHODS INVOLVING ISOFLAVONES AND ANALOGUES THEREOF” (NOVOGEN RESEARCH PTY LTD, priority 1999, published 2009) come the findings set out here.

In one assay the test system is A7r5. As to the kind of experiment: Proliferation of rat aortic smooth muscle cell line A7r5. It is filed as cell-based. Conditions: A7R5, 72 h, three days, read-out: VSMC proliferation - IC50 (μM), A7r5. The method, then:
Human umbilical vein smooth muscle cells (HUVSMC), tissue explants from a neonate (HRI— passage 2), were seeded into 96 well plates at 1×10^3 cells per well, and allowed to attach for 24 hours. They were then washed twice and incubated in medium without FBS for 24-48 hours to serum-starve them. Test compounds were prepared in medium without FBS and added to the plates and incubated for one hour. Medium with FBS was added to give a final concentration of 10% and the plates incubated for 5 days until the controls were just confluent. Final analogue concentration was therefore either a series from 150 μM to 1.2 μM, or single concentrations of 10 μM. The difference in absorbance between treated cells and untreated cells was calculated using the formula, test/control*100, to obtain the percentage change caused by the test compound. As well, an IC50 for each compound was calculated.
The effect of test compounds a rat aortic smooth muscle cell line (A7r5) and another cell line from the media of rat aorta (A10) was examined. The methodology was the same as for HUVSMC, except that the cells were treated with compound for three days.

A further assay concerns VCAM-1. The assay is described as follows: TNFα-induced VCAM expression on HAECs (ELISA). The class given is cell-based, human. The settings on record: 10 μM. As for the experimental part: Inhibition of TNFα-stimulated endothelial cell activation by compounds was assessed by measuring surface expression of cell adhesion molecules with an ELISA. Human arterial endothelial cells (HAECs) in growth medium (Cell Applications Inc.) were seeded into 96-well plates at a density of 10,000 cells per well. Plates were incubated overnight at 37° C. in a humidified incubator to allow for cells to become confluent. On the morning of the experiment, TNFα (10 μl, 2 ng/ml) was added to each well, which contained 100 μl of medium. Compounds were diluted in DMSO-containing medium (2.5% DMSO) to give a compound concentration of 100 and 300 μM. Compounds were added to wells so that final concentrations were 10 and 30 μM. DMSO-containing medium alone was added to zero concentration control wells. All samples were measured in quadruplicate (4 wells per treatment).
After incubation with compound for 4 hours, medium was removed and cells were probed with either non-specific IgG or specific mouse antibodies against VCAM, ICAM or E-selectin (BD Biosciences—0.1 μg in 100 μL buffered saline with 10% heat-inactivated human serum). Adhesion molecule expression was detected by addition of sheep anti-mouse antibody/horseradish peroxidase conjugate. Plates were allowed to stand for 30 minutes—monolayers were then washed, and sheep anti-mouse antibody/horseradish peroxidase conjugate (1:500 in 100 μL HBSS with 10% heat-inactivated human serum and 0.05% Tween 20) was added and left for 30 minutes. After further washing, 150 μL ABTS substrate (Kirkegaard and Perry Laboratories) was added to each well and allowed to develop for 15 minutes. Optical density was measured at 405 nm with an ELISA reader (Titertek Multiscan, Flow Laboratories).

The next assay deals with HCASMC. The assay is described as follows: Proliferation of human coronary artery smooth muscle cells. The class given is cell-based. Conditions: VSMC, 120 h, five days, MTT. The method, then: Human coronary smooth muscle cells (HCASMC—Clonetics) supplied at passage 3 and used for up to a further 12 population doublings, were seeded into 96 well plates at a low seeding rate, 2-5×10^3 cells per well and allowed to attach and proliferate to 30-40% confluence for 24-48 hours. Prior to inoculation the medium was changed to fresh growth medium. Test compounds were prepared in growth medium and added to plates so that the final concentrations were a series from 150 μM to 0.6 μM. The cells were incubated for five days, cell number assessed using MTT and an IC50 for each compound calculated.

The test system of the next assay is 5-LO (LTB4 synthesis). The assay is described as follows: Synthesis of LTB4 and metabolites by neutrophils (lipoxygenase). It is filed as cell-based. The settings on record: Neutrophil; calcium ionophore-stimulated human neutrophils. As for the experimental part: The pathway for LTB4 synthesis involves initial release of AA from phospholipids by a Ca-dependent PLA2. The free AA is then oxygenated at by 5-LO (requiring enzyme activation by FLAP) to generate an epoxide intermediate (LTA4). LTA4 is then converted to LTB4 by LTA4 hydrolase. LTB4 is metabolised (and deactivated) by a cytochrome P-(CYP) 450 […] to produce 20-hydroxy and 20-carboxy metabolites. These metabolites are also measured in the HPLC assay.
Neutrophils were isolated from citrated human venous blood to >90% purity by centrifugation through Ficoll, dextran sedimentation and lysis of erythrocytes. Cells were washed in HEPES buffered Hanks solution (HBHS) and then suspended at 4.5 million cells/mL in HBHS containing 0.1% bovine serum albumin (HBHS+BSA).
Experiments had been carried out previously to optimise the stimulation of neutrophils by calcium ionophore. At 37° C., cells were incubated with the test compound in 10 μL DMSO for 5 min before addition of 100 μL of 25 ng/μL calcium ionophore (free acid form, Sigma) with 0.5% DMSO in HBHS+BSA. The cells were incubated for 10 min then pelleted by centrifugation at 4° C. for 5 min and the cell free supernatant used to quantitate the levels of LTB4 and its metabolites.
To each 900 μL aliquot of the supernatant, 25 μL of prostaglandin B2 (PGB2) 2.5 ng/μL in ethanol was added as internal standard. The solution was acidified to pH≦3 with 2M formic acid and the mixture extracted with 2 mL ethyl acetate and vigorous vortexing. The organic layer was collected and dried under nitrogen in a glass vial before reconstituted in 50 μL of the reconstitution solution (water:methanol:acetonitrile at 2:1:1).
Analysis was carried out using an HPLC system with a 125-4 LiChrospher®100 RP-18 (5 μm) column (Agilent Technologies) and a gradient system adapted from a published method to separate LTB4, its oxidation products 20-hydroxy LTB4 (20-OH-LTB4) and 20-carboxy LTB4 (20-COOH-LTB4), as well as PGB2. At 1 ml/min flow rate, a combination of three different mobile phase solutions was used:
A (water:methanol:acetonitrile:trifluoroacetic acid at 80:40:40:0.1, pH=3 with Et3N), B (methanol:acetonitrile at 1:1), and C (methanol).
UV absorbance was monitored at 270 nm, and LTB4 and its metabolites were quantitated by comparison of peak areas with that of internal standard and a standard curve prepared earlier.

The subject of another assay is TNFα. The assay is described as follows: LPS-induced TNFα synthesis in human monocytes. The class given is cell-based. The settings on record: 100 μM. The method, then: Test compounds (in DMSO) at 100, 10, and 1 μmol/ were incubated with monocytes at 37° C. for 30 min after which LPS was added (200 ng/ml) and cells were incubated in triplicate for 18 h at 37° C. in 5% CO2. […], supernatants were removed and TNFα measured by ELISA previously described.

SMILES strings stand for the structures. Some results are limits rather than exact numbers.

For `COc1cccc(C2=Cc3ccc(O)cc3OC2)c1` [Cpd. 16, 7-Hydroxy-3′-methoxyisoflav-3-ene], the values for the IC50 in the assay with A7r5, in the assay with HCASMC and in the assay with 5-LO (LTB4 synthesis) were 48 µM, 118 µM and 2.2 µM, respectively. The “TNFα-induced VCAM expression” value in the assay with VCAM-1 is on record as “intermediate activity”.

`Cc1c(O)ccc2c1OCC(c1cccc(O)c1)=C2` [Cpd. 14, 3′,7-Dihydroxy-8-methylisoflav-3-ene]: the IC50 in the assay with A7r5 is 33 µM; in the assay on HCASMC, 54 µM; in the assay with 5-LO (LTB4 synthesis), under 0.1 µM. Besides, the “synthesis of TNFα” value with TNFα is “inhibited”.

In turn, `Oc1ccc2c(c1)OCC(c1ccc(Br)cc1)=C2` [Cpd. 21, 4′-Bromo-7-hydroxyisoflav-3-ene] gave an IC50 in the assay on HCASMC of 29 µM.

As to `COc1ccc(C2=Cc3ccc(O)cc3OC2)cc1OC` [Cpd. 18, 7-Hydroxy-3′,4′-dimethoxyisoflav-3-ene], the IC50 in the assay with A7r5 came out at 74 µM; with HCASMC, 88 µM; with 5-LO (LTB4 synthesis), 0.5 µM. Further, in the assay on VCAM-1, the “TNFα-induced VCAM expression” value is recorded as “significantly inhibited”. Further, the “synthesis of TNFα” value in the assay with TNFα is given as “inhibited”.

As for `COc1ccc(C2=Cc3ccc(O)c(C)c3OC2)cc1OC` [Cpd. 19, 7-Hydroxy-3′,4′-dimethoxy-8-methylisoflav-3-ene], the “TNFα-induced VCAM expression” value in the assay with VCAM-1 is given as “significantly inhibited”. Besides, the IC50 with HCASMC is 63 µM; with 5-LO (LTB4 synthesis) it was 0.3 µM. For the same molecule, in the assay with TNFα, the “synthesis of TNFα” value is reported as “inhibited”.

Turning to `Oc1ccc(C2=Cc3ccc(O)c(Br)c3OC2)cc1` [Cpd. 20, 4′,7-Dihydroxy-8-bromoisoflav-3-ene], the IC50 with A7r5 was 33 µM; in the assay on HCASMC, 27 µM; in the assay with 5-LO (LTB4 synthesis) it was 0.9 µM. Besides, in the assay on VCAM-1, the “TNFα-induced VCAM expression” value was “significantly inhibited”.
